Assay results reported in patent US6617350B2, “Inhibitors of aspartyl protease” (priority 1999, dated 2003).
Where two headings read alike, the source gives them in different places.

Key:
[1] = tested on: HIV-1 (strain IIIB); assay: microbe, parasite or virus in culture; format: cell-based; conditions: read-out: IC50
[2] = molecular target: HIV-1 protease (Human immunodeficiency virus type 1 group M subtype B, UniProt P04585); assay: biochemical; conditions: Table 12; HIV-1 protease; read-out: Ki
[3] = Human immunodeficiency virus 1, IIIB, MT4, Table 12, anti-viral potency in MT-4 cells

In the case of `CC(C)(CCCNS(C)(=O)=O)CN(C[C@@H](O)[C@H](Cc1ccccc1)NC(=O)O[C@H]1CO[C@H]2OCC[C@H]21)S(=O)(=O)c1ccc2c(c1)OCCO2` [Compound 271, (3R,3aS,6aR)hexahydrofuro[2,3-b]furan-3-yl N-[(1S,2R)-3-((2,3-dihydro-1,4-benzodioxin-6-ylsulfonyl)2,2-dimethyl-5-[(methylsulfonyl)amino]pentylamino)-1-benzyl-2-hydroxypropyl]carbamate], the IC50 [1, 3] is reported as at most 100 nM and the Ki [2] is reported as under 1 nM.

In the case of `COC(=O)NCCCC(C)(C)CN(C[C@@H](O)[C@H](Cc1ccccc1)NC(=O)O[C@H]1CO[C@H]2OCC[C@H]21)S(=O)(=O)c1ccc2c(c1)OCO2` [Compound 263, (3R,3aS,6aR)hexahydrofuro[2,3-b]furan-3-yl N-[(1S,2R)-3-((1,3-benzodioxol-5-ylsulfonyl)5-[(methoxycarbonyl)amino]-2,2-dimethylpentylamino)-1-benzyl-2-hydroxypropyl]carbamate], the IC50 [1, 3] is reported as at most 100 nM and the Ki [2] is reported as under 1 nM.

With `CC(C)(CCC#N)CN(CC(O)C(Cc1ccccc1)NC(=O)OC1COC2OCCC12)S(=O)(=O)c1ccc(O)cc1` [Compound 35, {(1S,2R)-3-[(4-hydroxybenzenesulfonyl)-(4-cyano-2,2-dimethyl-butyl)-amino]-1-benzyl-2-hydroxy-propyl}-carbamic acid (2R,3aS,6aR)hexahydro-furo[2,3-b]furan-3-yl ester] the IC50 [1, 3] was at most 100 nM and the Ki [2] was under 1 nM.

In the case of `CCN(C(=O)OC(C)(C)C)c1cccc(S(=O)(=O)N(CC(O)C(Cc2ccccc2)NC(=O)OC2COC3OCCC23)CC(C)(C)CCC#N)c1` [Compound 43, {(1S,2R)-3-[(3-N-tert-butoxycarbonyl-N-ethylaminophenyl)sulfonyl]-(4-cyano-2,2-dimethyl-butyl)-amino]-1-benzyl-2-hydroxy-propyl}-carbamic acid (3R,3aS,6aR)hexahydro-furo[2,3-b]furan-3-yl ester], the IC50 [1, 3] is reported as 100 to 500 nM and the Ki [2] is reported as under 1 nM.

Work on `COC(=O)NCCC(C)(C)CN(CC(O)C(Cc1ccccc1)NC(=O)OC1COC2OCCC12)S(=O)(=O)c1ccc(OC)cc1` [Compound 218, (3R,3aS,6aR)hexahydrofuro[2,3-b]furan-3-yl N-((1S,2R)-1-benzyl-2-hydroxy-3-4-[(methoxycarbonyl)amino]-2,2-dimethylbutyl[(4-methoxyphenyl)sulfonyl]aminopropyl)carbamate and (3S,3aR,6aS)hexahydrofuro[2,3-b]furan-3-yl N-((1S,2R)-1-benzyl-2-hydroxy-3-4-[(methoxycarbonyl)amino]-2,2-dimethylbutyl[(4-methoxyphenyl)sulfonyl]aminopropyl)carbamate] yielded an IC50 [1, 3] of at most 100 nM and a Ki [2] of under 1 nM.

Compound `CC(C)(CCCCN)CN(CC(O)C(Cc1ccccc1)NC(=O)OC1COC2OCCC12)S(=O)(=O)c1ccc2c(c1)OCO2` [Compound 244, (3R,3aS,6aR)hexahydrofuro[2,3-b]furan-3-yl N-(1S,2R)-3-[(6-amino-2,2-dimethylhexyl)(1,3-benzodioxol-5-ylsulfonyl)amino]-1-benzyl-2-hydroxypropylcarbamate] has an IC50 [1, 3] of 100 to 500 nM and a Ki [2] of under 1 nM.

`CC(C)(CCC#N)CN(C[C@@H](O)[C@H](Cc1ccccc1)NC(=O)OC1COCOC1)S(=O)(=O)c1ccc(O)cc1` [Compound 42, {(1S,2R)-1-Benzyl-3-[(4-cyano-2,2-dimethyl-butyl)-(4-hydroxybenzenesulfonyl)-amino]-2-hydroxy-propyl}-carbamic acid[1,3]dioxan-5-yl ester] gave an IC50 [1, 3] of 100 to 500 nM and a Ki [2] of under 1 nM.

For `COc1ccc(S(=O)(=O)N(CC(O)C(Cc2ccccc2)NC(=O)OC2COC3OCCC23)CC(C)(C)CCNC(=O)N2CCOCC2)cc1` [Compound 236, (3R,3aS,6aR)hexahydrofuro[2,3-b]furan-3-yl N-((1S,2R)-1-benzyl-3-2,2-dimethyl-4-[(morpholinocarbonyl)amino]butyl[(4-methoxyphenyl)sulfonyl]amino-2-hydroxypropyl)carbamate and (3S,3aR,6aS)hexahydrofuro[2,3-b]furan-3-yl N-((1S,2R)-1-benzyl-3-2,2-dimethyl-4-[(morpholinocarbonyl)amino]butyl[(4-methoxyphenyl)sulfonyl]amino-2-hydroxypropyl)carbamate], the IC50 [1, 3] was at most 100 nM and the Ki [2] was under 1 nM.

`CCC(CCC(C)=O)CN(CC(O)[C@H](Cc1ccccc1)NC(=O)OC1CCOC1)S(=O)(=O)c1ccc(OC)cc1` (stereo partly drawn) [Compound 206, (3S)-Tetrahydro-3-furanyl N-((1S,2R)-1-benzyl-3-(2-ethyl-5-oxohexyl)[(4-methoxyphenyl)sulfonyl]amino-2-hydroxypropyl)carbamate] gave an IC50 [1, 3] of at most 100 nM and a Ki [2] of under 1 nM.

In the case of `CCOC(=O)NCCC(C)(C)CN(CC(O)C(Cc1ccccc1)NC(=O)OC1COC2OCCC12)S(=O)(=O)c1ccc(OC)cc1` [Compound 226, (3R,3aS,6aR)hexahydrofuro[2,3-b]furan-3-yl N-((1S,2R)-1-benzyl-3-4-[(ethoxycarbonyl)amino]-2,2-dimethylbutyl[(4-methoxyphenyl)sulfonyl]amino-2-hydroxypropyl)carbamate and (3S,3aR,6aS)hexahydrofuro[2,3-b]furan-3-yl N-((1S,2R)-1-benzyl-3-4-[(ethoxycarbonyl)amino)-2,2-dimethylbutyl[(4-methoxyphenyl)sulfonyl]amino-2-hydroxypropyl)carbamate], the IC50 [1, 3] is reported as at most 100 nM and the Ki [2] is reported as under 1 nM.

Work on `CNc1cccc(S(=O)(=O)N(C[C@@H](O)[C@H](Cc2ccccc2)NC(=O)O[C@H]2CO[C@H]3OCC[C@H]32)CC(C)(C)CCC#N)c1` [Compound 12, (3R,3aS,6aR)-Hexahydrofuro[2,3-b]furan-3-yl N-[(1S,2R)-1-benzyl-3-((4-cyano-2,2-dimethylbutyl)[3-(methylamino)-phenyl]sulfonylamino)-2-hydroxypropyl]carbamate] yielded an IC50 [1, 3] of at most 100 nM, an IC50 ([1]; Human immunodeficiency virus 1, IIIB, MT4, Table 13, MT-4 cell based assay, class symbol) of 1 to 10 nM and a Ki [2] of under 1 nM.

`CC(C)(CCC#N)CN(CC(O)[C@H](Cc1ccccc1)NC(=O)OC1COC2OCCC12)S(=O)(=O)c1cccc(N)c1` (stereo partly drawn) [Compound 16, (3R,3aS,6aR)-Hexahydrofuro[2,3-b]furan-3-yl N-((1S,2R)-3-[(3-aminophenyl)sulfonyl](4-cyano-2,2-dimethylbutyl)amino-1-benzyl-2-hydroxypropyl)carbamate] was tested, and the IC50 ([1]; Table 12, anti-viral potency in MT-4 cells) was at most 100 nM and the Ki [2] was under 1 nM.

With `CNc1cccc(S(=O)(=O)N(C[C@@H](O)[C@H](Cc2ccccc2)NC(=O)O[C@H]2CO[C@H]3OCC[C@H]32)CC(C)(C)CCCCNC(=O)OC)c1` [Compound 246, (3R,3aS,6aR)hexahydrofuro[2,3-b]furan-3-yl N-[(1S,2R)-1-benzyl-2-hydroxy-3-(6-[(methoxycarbonyl)amino]-2,2-dimethylhexyl[3-(methylamino)phenyl]sulfonylamino)propyl]carbamate] the IC50 [1, 3] was at most 100 nM and the Ki [2] was under 1 nM.

With `COc1ccc(S(=O)(=O)N(C[C@@H](O)[C@H](Cc2ccccc2)NC(=O)O[C@H]2CCOC2)CC(C)(C)CCCC(C)=O)cc1` [Compound 209] the IC50 [1, 3] was 100 to 500 nM and the Ki [2] was under 1 nM.

`CNc1cccc(S(=O)(=O)N(C[C@@H](O)[C@H](Cc2ccccc2)NC(=O)O[C@H]2CO[C@H]3OCC[C@H]32)CC(C)(C)CCCCNC(=O)N(C)C)c1` [Compound 247, (3R,3aS,6aR)hexahydrofuro[2,3-b]furan-3-yl N-[(1S,2R)-1-benzyl-3-((6-[(dimethylamino)carbonyl]amino-2,2-dimethylhexyl)[3-(methylamino)phenyl]sulfonylamino)-2-hydroxypropyl]carbamate] showed an IC50 [1, 3] of at most 100 nM and a Ki [2] of under 1 nM.

For `CC(C)(CCC#N)CN(CC(O)C(Cc1ccccc1)NC(=O)OC1COC2OCCC12)S(=O)(=O)c1ccc2c(c1)OCCO2` (stereo not shown) [Compound 37], the IC50 [1, 3] was at most 100 nM and the Ki [2] was under 1 nM.

For `CCC(CC)(CCC#N)CN(C[C@@H](O)[C@H](Cc1ccccc1)NC(=O)O[C@H]1CCOC1)S(=O)(=O)c1ccc(OC)cc1` [Compound 17, (3S)-Tetrahydro-3-furanyl N-((1S,2R)-1-benzyl-3-(4-cyano-2,2-diethylbutyl)[(4-methoxyphenyl)sulfonyl]amino-2-hydroxypropyl)carbamate], the IC50 [1] was 100 to 500 nM and the Ki [2] was under 1 nM.

Compound `COc1ccc(S(=O)(=O)N(CCCCC#N)C[C@@H](O)[C@H](Cc2ccccc2)NC(=O)O[C@H]2CCOC2)cc1` [Compound 26, (3S)-Tetrahydro-3-furanyl N-((1S,2R)-1-benzyl-3-(4-cyanobutyl)[(4-methoxyphenyl)sulfonyl]amino-2-hydroxypropyl)carbamate] has an IC50 [1, 3] of 100 to 500 nM and a Ki [2] of under 1 nM.

For `COC(=O)NCCCCC(C)(C)CN(C[C@@H](O)[C@H](Cc1ccccc1)NC(=O)O[C@H]1CO[C@H]2OCC[C@H]21)S(=O)(=O)c1ccc2c(c1)OCO2` [Compound 248, (3R,3aS, 6aR)hexahydrofuro[2,3-b]furan-3-yl N-[(1S,2R)-3-((1,3-benzodioxol-5-ylsulfonyl)6-[(methoxycarbonyl)amino]-2,2-dimethylhexylamino)-1-benzyl-2-hydroxypropyl]carbamate], the IC50 [1, 3] was at most 100 nM and the Ki [2] was under 1 nM.

`COc1ccc(S(=O)(=O)N(C=C(C#N)C#N)C[C@@H](O)[C@H](Cc2ccccc2)NC(=O)OC(C)(C)C)cc1` [Compound 113] was tested, and the IC50 [1, 3] was 500 to 1000 nM and the Ki [2] was 10 to 100 nM.

`COc1ccc(S(=O)(=O)N(CC(O)C(Cc2ccccc2)NC(=O)OC2COC3OCCC23)CC(C)(C)CCN(C)C)cc1` [Compound 238, (3R,3aS,6aR)hexahydrofuro[2,3-b]furan-3-yl N-((1S,2R)-1-benzyl-3-[4-(dimethylamino)-2,2-dimethylbutyl][(4-methoxyphenyl)sulfonyl]amino-2-hydroxypropyl)carbamate and (3S,3aR,6aS)hexahydrofuro[2,3-b]furan-3-yl N-((1S,2R)-1-benzyl-3-[4-(dimethylamino)-2,2-dimethylbutyl][(4-methoxyphenyl)sulfonyl]amino-2-hydroxypropyl)carbamate]] was tested, and the IC50 [1, 3] was 100 to 500 nM and the Ki [2] was under 1 nM.
